Measured values published in US20240398737A1, “FUNCTIONALIZED LONG-CHAIN HYDROCARBON MONO- AND DI-CARBOXYLIC ACIDS AND DERIVATIVES THEREOF, AND THEIR USE FOR THE PREVENTION OR TREATMENT OF DISEASE” (Espervita Therapeutics, Inc., priority 2021, published 2024).

Tests used:
[1] = system: bone marrow derived macrophages (BMDMs); assay: LPS-induced glycolysis in bone marrow derived macrophages (Seahorse); type: cell-based, mouse; conditions: LPS + Compound I-1 50 μM, 4 hours
Protocol: (§1) Example 10: Treatment of bone marrow derived macrophages Mϕ (BMDMs) with Compound I-1 suppresses lipopolysaccharide (LPS)-induced glycolysis and inflammation. Macrophage were isolated as follows: femurs and tibia were collected from mice, cleaned of any soft tissues and the ends were cut off from each bone. The tibia and femur were then transferred into 1.5 mL Eppendorf tubes and the marrow was extracted via centrifugation (1900 g×5 min), resuspended in DMEM and strained through a 40 μm strainer into a 50 ml falcon tube. The strainer was rinsed with an additional 40 mL of DMEM, the cell suspension was transferred to a T175 flask, an additional 60 mL of DMEM was added and the cells were cultured at 37° C. for 4 hours. Differentiation was initiated by adding 20 mL of L929 fibroblast conditioned media and 12 mL was plated on 100 mm dishes. The cells were then left for 7 days to differentiate into macrophages. […] Changes in gene expression were calculated using 2-delta cT method. Macrophage glycolytic rates were assessed using a Seahorse Bioanalyzer (XFe96, Agilent Scientific Instruments). […] The following day cells were serum-starved for 2 hours then treated with LPS (100 ng/mL) and Compound I-1 (50 μM) and glycolytic rate was analyzed (Agilent Seahorse XFp Cell Energy Phenotype Test Kit, Cat #103275-100).

[2] = system: bone marrow derived macrophages (BMDMs); assay: LPS-induced Il-6 and Il-1b mRNA in BMDMs (RT-qPCR); type: cell-based, mouse; conditions: LPS 10 ng/mL + Compound I-1 50 μM, 4 hours
Protocol: as §1

CC(C)(CCCCc1ccc(CCCCC(C)(C)C(=O)O)cc1)C(=O)O [Compound I-1, 6-[4-(5-carboxy-5-methylhexyl)-phenyl]-2,2-dimethylhexanoic acid]
suppression: LPS-induced glycolysis (glycolytic rate, Seahorse) [1] | Il-1b mRNA (marker of inflammation) [2] | Il-6 mRNA (marker of inflammation) [2]
